Measurements as given in the supplement of paper PMC10307832.

Legend:
Assay in all cases: relative viability (nuclei count vs DMSO), 5 days (fraction); higher = more cells survive
Calu-6 = test system: Calu-6
Summary of the method: (§1)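 One day after seeding in 1536-well plates, lung cancer cell lines were dosed by pin tool. Dosing was either single-drug or a fixed anchor-drug dose plus five library-drug doses (not always all listed) in √10 steps. After 5 days, nuclei were stained in one fix-and-stain step and counted on 4× images, and relative viability is the nuclei count of treated wells over that of vehicle wells, given as the median of duplicate plates.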

NCI-H1299 = test system: NCI-H1299
Summary of the method: as §1

A549 = test system: A549
Summary of the method: as §1

NCI-H1703 = test system: NCI-H1703
Summary of the method: as §1

IA-LM = test system: IA-LM
Summary of the method: as §1

NCI-H2126 = test system: NCI-H2126
Summary of the method: as §1

ABC-1 = test system: ABC-1
Summary of the method: as §1

EBC-1 = test system: EBC-1
Summary of the method: as §1

EKVX = test system: EKVX
Summary of the method: as §1

NC(=O)Nc1cc(-c2cccc(F)c2)sc1C(=O)N[C@H]1CCCNC1 [AZD7762] + CS(=O)(=O)N1CCN(Cc2cc3nc(-c4cccc5[nH]ncc45)nc(N4CCOCC4)c3s2)CC1 [Pictilisib] (partner 1 µM)
relative viability (Calu-6; first compound 0.01 µM): 0.882
relative viability (Calu-6; first compound 0.03162 µM): 0.875
relative viability (Calu-6; first compound 0.1 µM): 0.691
relative viability (Calu-6; first compound 0.3162 µM): 0.17
relative viability (Calu-6; first compound 1 µM): 0.113
relative viability (NCI-H1299; first compound 0.01 µM): 0.98
relative viability (NCI-H1299; first compound 0.03162 µM): 0.882
relative viability (NCI-H1299; first compound 0.1 µM): 0.622
relative viability (NCI-H1299; first compound 0.3162 µM): 0.248
relative viability (NCI-H1299; first compound 1 µM): 0.116
relative viability (A549; first compound 0.01 µM): 0.548
relative viability (A549; first compound 0.03162 µM): 0.587
relative viability (A549; first compound 0.1 µM): 0.641
relative viability (A549; first compound 0.3162 µM): 0.368
relative viability (A549; first compound 1 µM): 0.107
relative viability (NCI-H1703; first compound 0.01 µM): 0.234
relative viability (NCI-H1703; first compound 0.03162 µM): 0.252
relative viability (NCI-H1703; first compound 0.1 µM): 0.224
relative viability (NCI-H1703; first compound 0.3162 µM): 0.189
relative viability (NCI-H1703; first compound 1 µM): 0.129
relative viability (IA-LM; first compound 0.01 µM): 0.48
relative viability (IA-LM; first compound 0.03162 µM): 0.456
relative viability (IA-LM; first compound 0.1 µM): 0.538
relative viability (IA-LM; first compound 0.3162 µM): 0.48
relative viability (IA-LM; first compound 1 µM): 0.0832
relative viability (NCI-H2126; first compound 0.01 µM): 0.491
relative viability (NCI-H2126; first compound 0.03162 µM): 0.482
relative viability (NCI-H2126; first compound 0.1 µM): 0.552
relative viability (NCI-H2126; first compound 0.3162 µM): 0.518
relative viability (NCI-H2126; first compound 1 µM): 0.612
relative viability (ABC-1; first compound 0.01 µM): 0.72
relative viability (ABC-1; first compound 0.03162 µM): 0.84
relative viability (ABC-1; first compound 0.1 µM): 0.611
relative viability (ABC-1; first compound 0.3162 µM): 0.462
relative viability (ABC-1; first compound 1 µM): 0.245
relative viability (EBC-1; first compound 0.01 µM): 0.429
relative viability (EBC-1; first compound 0.03162 µM): 0.447
relative viability (EBC-1; first compound 0.1 µM): 0.375
relative viability (EBC-1; first compound 0.3162 µM): 0.28
relative viability (EBC-1; first compound 1 µM): 0.166
relative viability (EKVX; first compound 0.01 µM): 0.459
relative viability (EKVX; first compound 0.03162 µM): 0.451
relative viability (EKVX; first compound 0.1 µM): 0.462
relative viability (EKVX; first compound 0.3162 µM): 0.327
relative viability (EKVX; first compound 1 µM): 0.276
